The values below come from patent US12403141B2, “Deuterated MK2 pathway inhibitors and methods of using the same” (ACLARIS THERAPEUTICS, INC., priority 2019, dated 2025).

Usually clearance stands for the rate of elimination divided by the concentration.

This series is described as follows: IV pharmacokinetics in male SD rats. It counts as in vivo, rat. Particulars: for clearance: male, Sprague-Dawley, rat, plasma, iv. As for the experimental part:
Pharmacokinetic parameters of some examples were evaluated in male Sprague Dawley (SD) rats after intravenous (IV) and oral (PO) dosing. Male SD rats (5-6 weeks of age) were fasted for 12 hours before administration of the compound of interest. Animals were allowed access to food 2 h after dosing and water was given ad libitum. Except for the compound of Example 13, pharmacokinetic experiments comparing deuterium containing and non-deuterium containing compounds were performed at the same time using the same cohort of animals. The pharmacokinetic properties of the compound of Example 13 were evaluated separately and compared to previously generated data.
For IV dosing, a 0.5 mg/mL solution of the test compound was prepared in a vehicle consisting of 5% DMSO, 5% Cremophore, 90% normal saline. For a 1 mpk dose, 2 mL/kg of this dosing vehicle was administered to each rat by bolus injection into the tail vein. For lower doses, the dosing solution was diluted with the appropriate amount of vehicle. Example 3 was evaluated at 3 mpk by preparing a 1.5 mg/mL solution in the same vehicle and dosing 2 mL/kg. Blood samples from each animal was collected in di-sodium EDTA coated containers at 0.12, 0.25, 0.5, 1.0, 2.0, 4.0, 8.0 and 24.0 hours after dosing. Plasma was separated from the blood samples within 15 minutes following collection and stored at −20±5° C. before analysis.
A standard curve was generated from a stock solution of the test compound with known concentration in methanol. Working solutions having known concentrations ranging from 5-20,000 ng/mL were prepared from the stock solution by dilution with methanol:water (80:20 v/v). 5 uL of the working solutions were added to 45 uL of blank rat plasma to provide standard samples for analysis.
Plasma samples collected from rats after dosing were allowed to reach room temperature. A 50 uL aliquot of each plasma sample and the standard curve plasma samples were treated with 200 uL of acetonitrile containing an internal standard (100 ng/mL; warfarin/diclofenac) and mixed well. The samples were vortexed for 5 minutes followed by centrifugation for 5 minutes at 14000 rpm at 4° C. The supernatant (10 uL) was analyzed by LC-MS/MS (LC: Shimadzu SIL HTc, MS: MDS Sciex API-5500 & 4000 using 75%/25% acetonitrile/0.2% formic acid in Milli-Q water, flow rate: 1.0 mL/min, run time 3 minutes, Atlantis dC18(50×4.6 mm, 3 um; Waters®)) and the concentrations of the test compound in the plasma samples collected from rats at each time point were determined by comparison to the standard curve samples.
Pharmacokinetic parameters were calculated from the plasma concentrations at each time point using Phoenix WinNonlin (Version 7.0) by the non-compartmental analysis (NCA) method. Clearance values are reported as mL/min/kg. AUC values are reported as ng·h/mL.

Where [1] appears, read: 0.1 mg/kg, IV 0.1 mpk, ± one standard deviation, read-out: IV clearance 0.1 mpk.
The mark [2] stands for this setting: 1 mg/kg, IV 1 mpk, ± one standard deviation, read-out: IV clearance 1 mpk.
Setting [3] is: 3 mg/kg, IV 3 mpk, ± one standard deviation, read-out: IV clearance 3 mpk.
Setting [4] is: IV 0.1 mpk, ± one standard deviation.

Where two headings read alike, the source gives them in different places.

Consider `[2H]C([2H])(Oc1cc(C)n(-c2cc(-c3ccnc(C(C)(C)O)n3)ncc2C)c(=O)c1Cl)c1ccn(C)n1` (single isomer, unassigned) [Example 3-D2, 3-Chloro-2′-(2-(2-hydroxypropan-2-yl)pyrimidin-4-yl)-5′,6-dimethyl-4-((1-methyl-1H-pyrazol-3-yl)methoxy-d2)-2H-[1,4′-bipyridin]-2-one], for which the clearance was 12 ± 3 mL/min/kg under setting [1], 13 ± 2 mL/min/kg under setting [2] and 9 ± 1 mL/min/kg under setting [3].

On to `[2H]C([2H])(Oc1cc(C)n(-c2cc(-c3ccnc(C(C)(C)O)n3)ncc2C)c(=O)c1Cl)c1ccccc1` (single isomer, unassigned) [Example 5-D2, 3-Chloro-2′-(2-(2-hydroxypropan-2-yl)pyrimidin-4-yl)-5′,6-dimethyl-4-(phenylmethoxy-d2)-2H-[1,4′-bipyridin]-2-one], for which the clearance amounted to 18 ± 1 mL/min/kg under setting [1] and 13 ± 2 mL/min/kg under setting [2].

With `[2H]C([2H])(Oc1cc(C)n(-c2cc(-c3ccnc(C(C)(C)O)n3)ncc2C)c(=O)c1Cl)c1cccc(C(F)(F)F)c1` (single isomer, unassigned) [Example 7-D2, 3-Chloro-2′-(2-(2-hydroxypropan-2-yl)pyrimidin-4-yl)-5′,6-dimethyl-4-((3-(trifluoromethyl)phenyl)methoxy-d2)-2H-[1,4′-bipyridin]-2-one], the clearance amounted to 4.9 ± 0.5 mL/min/kg under setting [1] and 6 ± 1 mL/min/kg under setting [2].

`[2H]C([2H])(Oc1cc(C)n(-c2cc(-c3ccnc(C(C)(C)O)n3)ncc2C)c(=O)c1Cl)c1cccc(OC)c1` (single isomer, unassigned) [Example 9-D2, 3-Chloro-2′-(2-(2-hydroxypropan-2-yl)pyrimidin-4-yl)-4-((3-methoxyphenyl)methoxy-d2)-5′,6-dimethyl-2H-[1,4′-bipyridin]-2-one]: the clearance is, setting by setting: under setting [1], 17 ± 3 mL/min/kg; under setting [2], 18 ± 2 mL/min/kg.

On to `[2H]C([2H])(Oc1cc(C)n(-c2cc(-c3ccnc(C(C)(C)O)n3)ncc2C)c(=O)c1Cl)c1ccc(F)cc1F` (single isomer, unassigned) [Example 11-D2, 3-Chloro-4-((2,4-difluorophenyl)methoxy-d2)-2′-(2-(2-hydroxypropan-2-yl)pyrimidin-4-yl)-5′,6-dimethyl-2H-[1,4′-bipyridin]-2-one], for which, under setting [4], the “IV clearance 0.1 mpk” value is on record as 16 ± 5, mL/min/kg. For the same molecule, the clearance under setting [2] was determined as 25 ± 3 mL/min/kg.

For the molecule `[2H]C([2H])(Oc1cc(C)n(-c2cc(-c3ccnc(C(C)(C)O)n3)ncc2C)c(=O)c1Cl)c1ccc(F)cc1F` (single isomer, unassigned) [Example 11-H2, 3-chloro-4-((2,4-difluorophenyl)methoxy-d2)-2′-(2-(2-hydroxypropan-2-yl)pyrimidin-4-yl)-5′,6-dimethyl-2H-[1,4′-bipyridin]-2-one], under “IV 0.1 and 1 mpk”, the “dose dependence of clearance” value is “strong dose dependence”. Besides, the “IV clearance 0.1 mpk” value under setting [4] stood at 40 ± 4 mL/min/kg. Besides, for the setting “IV 1 mpk, ± one standard deviation”, the “IV clearance 1 mpk” value is reported as 22 ± 2 mL/min/kg.

For the molecule `[2H]C([2H])([2H])C(O)(c1nccc(-c2cc(-n3c(C)cc(OCc4ncc(F)cc4F)c(Cl)c3=O)c(C)cn2)n1)C([2H])([2H])[2H]` (single isomer, unassigned) [Example 13-D6, 3-Chloro-4-((3,5-difluoropyridin-2-yl)methoxy)-2′-(2-(2-hydroxypropan-2-yl-1,1,1,3,3,3-d6)pyrimidin-4-yl)-5′,6-dimethyl-2H-[1,4′-bipyridin]-2-one], under “IV, versus non-deuterated comparator Example 1-H2”, the “effect of deuterium substitution on clearance” value is “did not result in a statistically significant reduction in clearance”. The clearance under setting [2] was determined as 25 ± 7 mL/min/kg.

As to `Cc1cnc(-c2ccnc(C(C)(C)O)n2)cc1-n1c(C)cc(OCc2ccn(C)n2)c(Cl)c1=O` [Example 3-H2, 3-chloro-2′-(2-(2-hydroxypropan-2-yl)pyrimidin-4-yl)-5′,6-dimethyl-4-((1-methyl-1H-pyrazol-3-yl)methoxy)-2H-[1,4′-bipyridin]-2-one], the clearance worked out at 13 ± 3 mL/min/kg under setting [1], 9 ± 2 mL/min/kg under setting [2] and 8 ± 1 mL/min/kg under setting [3].

Consider `Cc1cnc(-c2ccnc(C(C)(C)O)n2)cc1-n1c(C)cc(OCc2ccccc2)c(Cl)c1=O` [Example 5-H2, 3-chloro-2′-(2-(2-hydroxypropan-2-yl)pyrimidin-4-yl)-5′,6-dimethyl-4-(phenylmethoxy)-2H-[1,4′-bipyridin]-2-one], for which the clearance by setting is: under setting [1], 16 ± 2 mL/min/kg; under setting [2], 15 ± 2 mL/min/kg.

In the case of `Cc1cnc(-c2ccnc(C(C)(C)O)n2)cc1-n1c(C)cc(OCc2cccc(C(F)(F)F)c2)c(Cl)c1=O` [Example 7-H2, 3-chloro-2′-(2-(2-hydroxypropan-2-yl)pyrimidin-4-yl)-5′,6-dimethyl-4-((3-(trifluoromethyl)phenyl)methoxy)-2H-[1,4′-bipyridin]-2-one], the clearance runs as follows: under setting [1], 7 ± 4 mL/min/kg; under setting [2], 3.1 ± 0.3 mL/min/kg.

As for `COc1cccc(COc2cc(C)n(-c3cc(-c4ccnc(C(C)(C)O)n4)ncc3C)c(=O)c2Cl)c1` [Example 9-H2, 3-chloro-2′-(2-(2-hydroxypropan-2-yl)pyrimidin-4-yl)-4-((3-methoxyphenyl)methoxy)-5′,6-dimethyl-2H-[1,4′-bipyridin]-2-one], the clearance runs as follows: under setting [1], 16 ± 3 mL/min/kg; under setting [2], 12 ± 2 mL/min/kg.
